The values below come from US12612380B2, “Non-lysosomal glucosylceramidase inhibitors and uses thereof” (ALECTOS THERAPEUTICS INC., priority 2019, dated 2026).

The test concerns the target T1, GBA2 (Homo sapiens, UniProt Q9HCG7).
T1 sequence (Q9HCG7 1-927): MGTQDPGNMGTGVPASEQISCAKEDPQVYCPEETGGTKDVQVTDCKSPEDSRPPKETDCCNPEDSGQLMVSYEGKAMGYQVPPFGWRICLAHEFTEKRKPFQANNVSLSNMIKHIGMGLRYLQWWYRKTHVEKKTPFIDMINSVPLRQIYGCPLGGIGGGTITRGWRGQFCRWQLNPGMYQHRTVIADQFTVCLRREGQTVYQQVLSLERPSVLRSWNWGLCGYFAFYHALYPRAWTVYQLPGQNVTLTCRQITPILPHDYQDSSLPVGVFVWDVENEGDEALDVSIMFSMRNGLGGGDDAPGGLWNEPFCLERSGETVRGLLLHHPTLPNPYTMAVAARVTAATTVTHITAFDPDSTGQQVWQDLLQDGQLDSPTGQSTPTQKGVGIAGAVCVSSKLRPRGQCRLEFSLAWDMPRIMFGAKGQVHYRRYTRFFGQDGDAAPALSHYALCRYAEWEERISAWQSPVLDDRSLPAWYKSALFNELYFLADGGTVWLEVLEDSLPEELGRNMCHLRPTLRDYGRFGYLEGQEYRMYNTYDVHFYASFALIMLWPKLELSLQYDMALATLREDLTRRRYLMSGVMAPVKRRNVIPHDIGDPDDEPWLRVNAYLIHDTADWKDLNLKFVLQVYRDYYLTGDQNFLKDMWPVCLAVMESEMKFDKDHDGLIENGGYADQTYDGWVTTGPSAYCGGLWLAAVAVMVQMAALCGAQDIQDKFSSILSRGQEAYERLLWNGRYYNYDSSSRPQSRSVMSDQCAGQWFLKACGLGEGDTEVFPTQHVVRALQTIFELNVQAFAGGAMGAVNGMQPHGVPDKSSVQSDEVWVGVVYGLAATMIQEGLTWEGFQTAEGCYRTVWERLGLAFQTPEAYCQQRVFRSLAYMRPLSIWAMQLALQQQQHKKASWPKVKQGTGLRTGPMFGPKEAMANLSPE
Put plainly: Determination of IC50 values for inhibition of GBA2 in cell lysate. Format: biochemical. Also noted: host or cells: HEK293T (lentiviral transduction, puromycin selection); used as cellular homogenate. The text has this: Assay for Determination of IC50 Values for Inhibition of GBA2 in Cell Lysate
Stable GBA2-expressing HEK293T cells were generated as follows. The PCR-amplified human GBA2 (GBA2 nucleotide accession number BC011363) using the following primers: Sense 5′---CGCAAATGGGCGGTAGGCGTG (SEQ ID NO:2)---3′ and antisense 5′---TAGTCAGCCATGGGGCGGAGA (SEQ ID NO:3)---3′) was cloned into pLenti-GIII-CMV by ABM Inc. The correctness of the construct was verified by sequencing. Lentivirus particles containing GBA2 in the pLenti-GIII-CMV plasmid were prepared using a third Generation Virus Packaging Mix (ABM cat #LV053-G074) in HEK293T cells and supplied as a virus particle suspension. The virus suspension was used for infection of HEK293T cells. Cell populations stably expressing human GBA2 were selected using puromycin for several weeks as determined by activity assays and western blot.
Various concentrations of test compounds were prepared in DMSO and then diluted into buffer consisting of 100 mM citric acid, 200 mM disodium phosphate with 1% v/v C10E6, pH 5.5. Cellular homogenates (0.25 mg/mL) of the stable HEK293T-overexpressing GBA2 cell line were preincubated for 10 min on ice with an inhibitor of GCase (20 μM (6R,7R,8S)-8-ethyl-4-azaspiro[2.5]octane-6,7-diol). The reaction solution consisted of 20 μL of 750 μM 4-methylumbelliferone-β-D glucopyranoside in 5% DMSO in the same buffer, 20 μL of GBA2-cellular homogenate pre-treated with (6R,7R,8S)-8-ethyl-4-azaspiro[2.5]octane-6,7-diol and 20 μL of various concentrations of test compound in 10% DMSO in the same buffer. The final concentrations in the reaction were 0.083 mg/mL GBA2-cellular homogenate, 250 μM 4-methylumbelliferone-β-D glucopyranoside, and various concentrations of inhibitor. The inhibitor and GBA2-cellular homogenate were preincubated together for 5 min at 37° C. The reaction was initiated by addition of substrate and allowed to proceed for 20 min at 37° C. to assess GBA2 activity. Reactions were stopped by the addition of an equal volume (60 μL) of 0.5 M NaOH, 0.3 M glycine, pH 10.5. Fluorescence was measured on a Biotek Synergy H4 plate reader at wavelengths of 365 nm for excitation and 450 nm for emission. Incubations without added enzyme or added inhibitors were used to define no enzyme activity and maximal enzyme activity, respectively. IC50 values were determined by fitting the data to a log[inhibitor concentration] versus response curve using GraphPad Prism. IC50 values were calculated as the concentration of inhibitor required to inhibit GBA2 activity by 50%.

[1] abbreviates: cellular homogenate of HEK293T cells overexpressing human GBA2, 250 μM 4-methylumbelliferone-β-D glucopyranoside, pH 5.5, 37° C., GCase inhibitor present, read-out: GBA2 IC50.

Read-outs that look alike come from different tables or passages of the source.

Take `C[C@@H]1[C@@H](O)[C@H](O)[C@@H](O)CN1CCC12CC3CC(CC(C3)C1)C2` [Example 33, (2R,3R,4R,5S)-1-((2-adamantan-1-yl)ethyl)-2-methylpiperidine-3,4,5-triol]: the IC50 under setting [1] was less than 100 nM.

Regarding `C[C@@H]1[C@@H](O)[C@H](O)[C@@H](O)CN1CCCC1CCCCC1` [Example 34, (2R,3R,4R,5S)-1-(3-cyclohexylpropyl)-2-methylpiperidine-3,4,5-triol], under setting [1], the IC50 is less than 100 nM.

For `C[C@@H]1[C@@H](O)[C@H](O)[C@@H](O)CN1CCc1ccccc1` [Example 35, (2R,3R,4R,5S)-2-methyl-1-phenethylpiperidine-3,4,5-triol], the IC50 fell in the range of 100 to 1000 nM.

Turning to `Cc1ccccc1CCN1C[C@H](O)[C@@H](O)[C@H](O)[C@H]1C` [Example 36, (2R,3R,4R,5S)-2-methyl-1-(2-methylphenethyl)piperidine-3,4,5-triol], the IC50 was in the range of 100 to 1000 nM.

As for `COc1ccccc1CCN1C[C@H](O)[C@@H](O)[C@H](O)[C@H]1C` [Example 37, (2R,3R,4R,5S)-1-(2-methoxyphenethyl)-2-methylpiperidine-3,4,5-triol], the half-maximal inhibitory concentration (IC50) was 100 to 1000 nM.

With `C[C@@H]1[C@@H](O)[C@H](O)[C@@H](O)CN1CCc1ccccc1F` [Example 38, (2R,3R,4R,5S)-1-(2-fluorophenethyl)-2-methylpiperidine-3,4,5-triol], the IC50 lay in the range of 100 to 1000 nM.

For `C[C@@H]1[C@@H](O)[C@H](O)[C@@H](O)CN1CCc1ccccc1Cl` [Example 39, (2R,3R,4R,5S)-1-(2-chlorophenethyl)-2-methylpiperidine-3,4,5-triol], the IC50 was 100 to 1000 nM.

For `C[C@@H]1[C@@H](O)[C@H](O)[C@@H](O)CN1CCc1cccc(F)c1F` [Example 40, (2R,3R,4R,5S)-1-(2,3-difluorophenethyl)-2-methylpiperidine-3,4,5-triol], the IC50 lay in the range of 100 to 1000 nM.

As for `C[C@@H]1[C@@H](O)[C@H](O)[C@@H](O)CN1CCc1ccc(F)cc1F` [Example 41, (2R,3R,4R,5S)-1-(2,4-difluorophenethyl)-2-methylpiperidine-3,4,5-triol], the IC50 lay in the range of 100 to 1000 nM.

Consider `C[C@@H]1[C@@H](O)[C@H](O)[C@@H](O)CN1CCc1cc(F)ccc1F` [Example 42, (2R,3R,4R,5S)-1-(2,5-difluorophenethyl)-2-methylpiperidine-3,4,5-triol], for which the IC50 is less than 100 nM.

On to `C[C@@H]1[C@@H](O)[C@H](O)[C@@H](O)CN1CCc1ccc(F)c(F)c1` [Example 43, (2R,3R,4R,5S)-1-(3,4-difluorophenethyl)-2-methylpiperidine-3,4,5-triol], for which the IC50 was in the range of 100 to 1000 nM.

`COc1ccc(CCN2C[C@H](O)[C@@H](O)[C@H](O)[C@H]2C)c(F)c1` [Example 44, (2R,3R,4R,5S)-1-(2-fluoro-4-methoxyphenethyl)-2-methylpiperidine-3,4,5-triol]: the IC50 fell in the range of 100 to 1000 nM.

With `C[C@@H]1[C@@H](O)[C@H](O)[C@@H](O)CN1CCc1ccc(Cl)cc1F` [Example 46, (2R,3R,4R,5S)-1-(4-chloro-2-fluorophenethyl)-2-methylpiperidine-3,4,5-triol], the IC50 was in the range of 100 to 1000 nM.

`C[C@@H]1[C@@H](O)[C@H](O)[C@@H](O)CN1CCc1cc(Cl)ccc1F` [Example 47, (2R,3R,4R,5S)-1-(5-chloro-2-fluorophenethyl)-2-methylpiperidine-3,4,5-triol]: the IC50 was less than 100 nM.

Consider `C[C@@H]1[C@@H](O)[C@H](O)[C@@H](O)CN1CCc1c(F)cccc1F` [Example 48, (2R,3R,4R,5S)-1-(2,6-difluorophenethyl)-2-methylpiperidine-3,4,5-triol], for which the IC50 was less than 100 nM.

`C=C(C)c1cc(F)c(CCN2C[C@H](O)[C@@H](O)[C@H](O)[C@H]2C)c(F)c1` [Example 50, (2R,3R,4R,5S)-1-(2,6-difluoro-4-(prop-1-en-2-yl)phenethyl)-2-methylpiperidine-3,4,5-triol]: the IC50 was less than 100 nM.

With `C[C@@H]1[C@@H](O)[C@H](O)[C@@H](O)CN1CCc1ccc(OC2CCOC2)cc1` (stereo partly drawn) [Example 61, (2R,3R,4R,5S)-2-methyl-1-(4-((tetrahydrofuran-3-yl)oxy)phenethyl)piperidine-3,4,5-triol], the IC50 under setting [1] was less than 100 nM.

In the case of `C[C@@H]1[C@@H](O)[C@H](O)[C@@H](O)CN1CCc1ccc(OC2CCCOC2)cc1` (stereo partly drawn) [Example 62, (2R,3R,4R,5S)-2-methyl-1-(4-((tetrahydro-2H-pyran-3-yl)oxy)phenethyl)piperidine-3,4,5-triol], the IC50 is less than 100 nM.

On to `C[C@@H]1[C@@H](O)[C@H](O)[C@@H](O)CN1CCc1ccc(OC2CCOCC2)cc1` [Example 63, (2R,3R,4R,5S)-2-methyl-1-(4-((tetrahydro-2H-pyran-4-yl)oxy)phenethyl)piperidine-3,4,5-triol], for which the IC50 is less than 100 nM.

For the compound `C[C@@H]1[C@@H](O)[C@H](O)[C@@H](O)CN1CCc1ccc(Oc2ccccc2)cc1` [Example 64, (2R,3R,4R,5S)-2-methyl-1-(4-phenoxyphenethyl)piperidine-3,4,5-triol], under setting [1], the IC50 was less than 100 nM.

For the compound `C[C@@H]1[C@@H](O)[C@H](O)[C@@H](O)CN1CCc1ccc(OCC2CCOC2)cc1` (stereo partly drawn) [Example 65, (2R,3R,4R,5S)-2-methyl-1-(4-((tetrahydrofuran-3-yl)methoxy)phenethyl)piperidine-3,4,5-triol], the IC50 is less than 100 nM.

Take `C[C@@H]1[C@@H](O)[C@H](O)[C@@H](O)CN1C[C@H](C)c1ccccc1` [Example 66, (2R,3R,4R,5S)-2-methyl-1-((R)-2-phenylpropyl)piperidine-3,4,5-triol]: under setting [1], the IC50 lay within 100 to 1000 nM.

Take `C[C@H](CN1C[C@H](O)[C@@H](O)[C@H](O)[C@H]1C)c1ccccc1` [Example 67, (2R,3R,4R,5S)-2-methyl-1-((S)-2-phenylpropyl)piperidine-3,4,5-triol]: the IC50 under setting [1] lay in the range of 100 to 1000 nM.

Regarding `C[C@@H]1[C@@H](O)[C@H](O)[C@@H](O)CN1CCc1ccc(-c2ccccc2)cc1` [Example 68, (2R,3R,4R,5S)-1-(2-([1,1′-biphenyl]-4-yl)ethyl)-2-methylpiperidine-3,4,5-triol], the IC50 under setting [1] was less than 100 nM.

As to `C[C@@H]1[C@@H](O)[C@H](O)[C@@H](O)CN1CCc1c(F)cc(-c2ccccc2)cc1F` [Example 69, (2R,3R,4R,5S)-1-(2-(3,5-difluoro-[1,1′-biphenyl]-4-yl)ethyl)-2-methylpiperidine-3,4,5-triol], the IC50 under setting [1] is less than 100 nM.

As to `C[C@@H]1[C@@H](O)[C@H](O)[C@@H](O)CN1CCc1ccc2c(c1)OC(F)(F)O2` [Example 72, (2R,3R,4R,5S)-1-(2-(2,2-difluorobenzo[d][1,3]dioxol-5-yl)ethyl)-2-methylpiperidine-3,4,5-triol], the IC50 was less than 100 nM.
